# Active and inactive are the calls of the source. The rule behind the calls is not given here.
# System: Human immunodeficiency virus 1
# Assay: Antiviral activity against 10 CCID50 units of HIV1 infected in human C8166 cells at 2.5 ug/mL after 5 to 7 days
# Type: functional, organism-based
row,SMILES,Activity
1,CC(=O)OC[C@]1(O)CC[C@@H]2[C@@]3(C)CCCC(C)(C)[C@@H]3CC[C@@]2(C)[C@H]1CC(O)C1=CC(=O)OC1OC(=O)/C=C/c1ccccc1 (some centres undefined),inactive
2,CC(=O)OC[C@]1(O)CC[C@@H]2[C@@]3(C)CCCC(C)(C)[C@@H]3CC[C@@]2(C)[C@H]1CC(O)C1=CC(=O)OC1OC(C)=O (some centres undefined),inactive
3,CC(=O)OC1OC(=O)C=C1C(O)C[C@H]1[C@](O)(CO)CC[C@@H]2[C@@]3(C)CCCC(C)(C)[C@@H]3CC[C@]21C (some centres undefined),inactive
4,CC1(C)CCC[C@]2(C)[C@H]3CC[C@@](O)(CO)[C@H](CC(O)C4=CC(=O)OC4OC(=O)/C=C/c4ccccc4)[C@]3(C)CC[C@@H]12 (some centres undefined),inactive
